According to patent US20130172847A1, “Compositions for Providing Vitamin D Year Round and Uses Thereof” (priority 2002, published 2013):

Experiments:
[1] = Conversion of 7-DHC and/or T3 to PreD3 in ethanol under winter natural sunlight; type: physicochemical
Source text: (§1) In contrast, compositions comprising increasing amounts of T3 produce increasing amounts of PreD3 when exposed to winter sunlight.
(§2) Conversion of 7-Dehydrocholesterol (7-DHC) and/or Tachysterol (T3) to Previtamin D3 (PreD3)

[2] = Conversion of 7-DHC and/or T3 to PreD3 in cream under winter natural sunlight; type: physicochemical; details: Cream (1 g); natural sunlight 5-60 min; start 7-DHC 1.0 μg, T3 0 μg
Source text: as §1, §2

[3] = Conversion of 7-DHC and/or T3 to PreD3 in cream under artificial UVB light (simulates summer sunlight); type: physicochemical; details: for % Yield / PreD3 Formed: Cream (1 g), artificial UVB 2 min
Source text: as §1, §2

[4] = human skin or organic solvent exposed to 295 nm radiation; cited from earlier work
[5] = cited from earlier work
[6] = Ethanol (1 ml), natural sunlight 90 min, start 7-DHC 0 μg, T3 10 μg

% Yield [1, 6] | PreD3 Formed [1, 6] | % Yield ([3]; start 7-DHC 0 μg, T3 1 μg) | PreD3 Formed ([3]; start 7-DHC 0 μg, T3 1 μg) | SMILES | % Yield ([1]; Ethanol (1 ml), natural sunlight 90 min, start 7-DHC 10 μg, T3 0 μg) | conversion to PreD3 when exposed to winter sunlight (in words) ([1]; winter natural sunlight, summary of the table) | % Yield [2] | % Yield ([3]; start 7-DHC 1.0 μg, T3 0 μg) | PreD3 Formed ([3]; start 7-DHC 1.0 μg, T3 0 μg) | conversion to PreD3 when exposed to artificial UVB light (in words) [3] | provitamin D3 converted to previtamin D3 [4] | portion of tachysterol among photoproducts ([5]; exposed to light in the range of 254 nm) | previtamin D3 produced ([5]; irradiated at 0° C. with 254 nm light, thereafter (0° C.) with 350 nm light)
 |  |  |  | CC(C)CCC[C@@H](C)[C@H]1CC[C@H]2C3=CC=C4C[C@@H](O)CC[C@]4(C)[C@H]3CC[C@]12C [7-DHC, 7-Dehydrocholesterol] | 0% | inefficiently converted to PreD3 | 0% | 26% | 0.26 µg | converted to PreD3 | up to 65% | about 75% | ≤ 83%
77% | 7.1 µg | 52% | 0.52 µg | CC1=C(/C=C\C2=CCC[C@]3(C)[C@@H]([C@H](C)CCCC(C)C)CC[C@@H]23)C[C@@H](O)CC1 [T3, Tachysterol] |  |  |  |  |  | converted to PreD3 |  |  | 
